Data as given in the NIST ThermoML archive (doi:10.1021/je900878j).
± gives the expanded uncertainty stated by the source.

Details: 101.33 kPa, Liquid; for electrical conductivity: Symmetrical Wheatstone bridge; for viscosity: Capillary tube (Ostwald / Ubbelohde) method; for mass density: Vibrating tube method

| Compound | electrical conductivity (258.15 K) [S/m] | electrical conductivity (268.15 K) [S/m] | electrical conductivity (278.15 K) [S/m] | electrical conductivity (288.15 K) [S/m] | viscosity (293.15 K) [mPa·s] | viscosity (298.15 K) [mPa·s] | electrical conductivity (298.15 K) [S/m] | mass density (298.15 K) [kg/m3] | viscosity (303.15 K) [mPa·s] | electrical conductivity (303.15 K) [S/m] | mass density (303.15 K) [kg/m3] | viscosity (313.15 K) [mPa·s] | electrical conductivity (313.15 K) [S/m] | mass density (313.15 K) [kg/m3] | viscosity (323.15 K) [mPa·s] | electrical conductivity (323.15 K) [S/m] | mass density (323.15 K) [kg/m3] | viscosity (333.15 K) [mPa·s] | electrical conductivity (333.15 K) [S/m] | mass density (333.15 K) [kg/m3] | further results |
| --- | --- | --- | --- | --- | --- | --- | --- | --- | --- | --- | --- | --- | --- | --- | --- | --- | --- | --- | --- | --- | --- |
| CCn1cc[n+](C)c1.O=S(=O)([N-]S(=O)(=O)C(F)(F)F)C(F)(F)F | 0.1475 ± 0.0012 | 0.2671 ± 0.0021 | 0.4347 ± 0.0035 | 0.6526 ± 0.0052 | 39.07 ± 1.1 | 32.46 ± 0.88 | 0.921 ± 0.0074 | 1519.3 ± 4.5 | 27.3 ± 0.74 | 1.074 ± 0.0086 | 1514.2 ± 4.5 | 19.97 ± 0.54 | 1.414 ± 0.011 | 1504.3 ± 4.4 | 15.17 ± 0.41 | 1.799 ± 0.014 | 1494.3 ± 4.4 | 11.87 ± 0.32 | 2.224 ± 0.018 | 1484.4 ± 4.3 | electrical conductivity (248.15 K): 0.0705 ± 0.00056 S/m; viscosity (263.15 K): 175.1 ± 5.8 mPa·s; viscosity (268.15 K): 128.8 ± 4 mPa·s; viscosity (278.15 K): 75.13 ± 2.1 mPa·s; viscosity (288.15 K): 47.78 ± 1.3 mPa·s; viscosity (343.15 K): 9.54 ± 0.26 mPa·s; electrical conductivity (343.15 K): 2.689 ± 0.021 S/m; viscosity (353.15 K): 7.83 ± 0.21 mPa·s; electrical conductivity (353.15 K): 3.189 ± 0.025 S/m |
| CCCCn1cc[n+](C)c1.F[B-](F)(F)F [1-butyl-3-methylimidazolium tetrafluoroborate] | 0.02318 ± 0.00019 | 0.05477 ± 0.00044 | 0.1137 ± 0.00091 | 0.2116 ± 0.0017 | 141.1 ± 4.4 | 107.6 ± 3.2 | 0.3587 ± 0.0029 | 1202.4 ± 2.8 | 83.3 ± 2.3 | 0.4543 ± 0.0036 | 1198.6 ± 2.8 | 52.81 ± 1.4 | 0.6913 ± 0.0055 | 1191.6 ± 2.7 | 35.53 ± 0.97 | 0.9942 ± 0.008 | 1184.5 ± 2.7 | 25.11 ± 0.68 | 1.364 ± 0.011 | 1177.3 ± 2.7 | viscosity (343.15 K): 18.48 ± 0.5 mPa·s; electrical conductivity (343.15 K): 1.8 ± 0.014 S/m; viscosity (353.15 K): 14.06 ± 0.38 mPa·s; electrical conductivity (353.15 K): 2.301 ± 0.018 S/m |
| CCn1cc[n+](C)c1.N#CN=C=[N-] [1-ethyl-3-methylimidazolium dicyanamide] | 0.6305 ± 0.005 | 1.035 ± 0.0083 | 1.556 ± 0.012 | 2.189 ± 0.018 | 16.85 ± 0.46 | 14.5 ± 0.39 | 2.928 ± 0.023 | 1100.8 ± 2.3 | 12.62 ± 0.34 | 3.342 ± 0.027 | 1097.5 ± 2.3 | 9.8 ± 0.27 | 4.226 ± 0.034 | 1091 ± 2.3 | 7.83 ± 0.21 | 5.194 ± 0.042 | 1084.4 ± 2.2 | 6.43 ± 0.18 | 6.236 ± 0.05 | 1077.9 ± 2.2 | electrical conductivity (238.15 K): 0.1546 ± 0.0012 S/m; electrical conductivity (248.15 K): 0.3404 ± 0.0027 S/m; viscosity (258.15 K): 75.38 ± 2.1 mPa·s; viscosity (263.15 K): 56.81 ± 1.5 mPa·s; viscosity (268.15 K): 44.24 ± 1.2 mPa·s; viscosity (273.15 K): 35.22 ± 0.96 mPa·s; viscosity (278.15 K): 28.59 ± 0.78 mPa·s; viscosity (288.15 K): 19.81 ± 0.54 mPa·s; viscosity (343.15 K): 5.36 ± 0.15 mPa·s; electrical conductivity (343.15 K): 7.343 ± 0.059 S/m; viscosity (353.15 K): 4.55 ± 0.12 mPa·s; electrical conductivity (353.15 K): 8.509 ± 0.068 S/m |
| CCn1cc[n+](C)c1.F[B-](F)(F)F [1-ethyl-3-methylimidazolium tetrafluoroborate] | 0.2333 ± 0.0019 | 0.4316 ± 0.0034 | 0.7168 ± 0.0057 | 1.096 ± 0.0088 | 44.19 ± 1.2 | 36.17 ± 0.98 | 1.573 ± 0.013 | 1288.8 ± 3.2 | 30.13 ± 0.82 | 1.847 ± 0.015 | 1285 ± 3.2 | 21.77 ± 0.59 | 2.466 ± 0.02 | 1277.5 ± 3.2 | 16.35 ± 0.45 | 3.176 ± 0.025 | 1269.9 ± 3.1 | 12.7 ± 0.35 | 3.97 ± 0.032 | 1262.4 ± 3.1 | electrical conductivity (238.15 K): 0.04188 ± 0.00034 S/m; electrical conductivity (248.15 K): 0.1088 ± 0.00087 S/m; viscosity (269.15 K): 145 ± 4.6 mPa·s; viscosity (273.15 K): 114.1 ± 3.4 mPa·s; viscosity (278.15 K): 86.88 ± 2.5 mPa·s; viscosity (288.15 K): 54.1 ± 1.5 mPa·s; viscosity (343.15 K): 10.12 ± 0.28 mPa·s; electrical conductivity (343.15 K): 4.843 ± 0.039 S/m; viscosity (353.15 K): 8.23 ± 0.22 mPa·s; electrical conductivity (353.15 K): 5.794 ± 0.046 S/m |
